In patent US8044204B2, “8-methoxy-9H-isothiazolo[5,4-b]quinoline-3,4-diones and related compounds as anti-infective agents” (Achillion Pharmaceuticals, Inc., priority 2005, dated 2011) one finds MIC data, which are given here for 24 compounds.

Type in all cases: cell-based
The subject of one test is S. aureus ATCC 29213. As to the kind of experiment: Minimum Inhibitory Concentration (MIC) assay, S. aureus. The conditions noted are these: Staphylococcus aureus, ATCC29213; broth microdilution; read-out: MIC against S. Aureus. As for the experimental part: (§1) The antimicrobial activity of the compounds of the invention may be evaluated by a number of methods, including the following visual minimum inhibitory concentration (MIC) assay. This assay determines the minimum concentration of compound required to inhibit growth of a bacterial strain.
(§2) Minimum Inhibitory Concentration (MIC) Assay
(§3) Whole-cell antibacterial activity is determined by broth microdilution using conditions recommended by the NCCLS (see National Committee for Clinical Laboratory Standards. 2001. Performance standards for antimicrobial susceptibility testing: 11th informational supplement. Vol. 21, no. 1, M100-S11. National Committee for Clinical Laboratory Standards, Wayne, Pa.). Test compounds are dissolved in DMSO and diluted 1:50 in Mueller-Hinton II broth (Becton-Dickinson) to produce a 256 μg/ml stock solution. In a 96-well microtiter plate, the compound solution is serially two-fold diluted in Mueller-Hinton II broth. After the compounds are diluted, a 50 μl aliquot of the test organism (˜1×10^6 cfu/mL) is added to each well of the microtiter plate. The final test concentrations ranges from 0.125-128 μg/mL. Inoculated plates are incubated in ambient air at 37° C. for 18 to 24 hours. The organisms selected for testing included laboratory strains S. aureus ATCC 29213 and E. coli ATCC 25922 (strains purchased from American Type Culture Collection, Manassas, Va.), S. aureus FQR700699, and Paeruginosa 27853. The minimum inhibitory concentration (MIC) is determined as the lowest concentration of compound that inhibited visible growth of the test organism.

A further test deals with E. coli ATCC 25922. Kind of test: Minimum Inhibitory Concentration (MIC) assay, E. coli. Conditions: Escherichia coli, ATCC25922; broth microdilution; read-out: MIC against E. coli. As to the method:
as §1, §2, §3

In a further test the test system is MRSA strain ATCC 700699. As to the kind of experiment: Minimum Inhibitory Concentration (MIC) assay, Methicillin Resistant S. Aureus. The conditions noted are these: Staphylococcus aureus; broth microdilution; read-out: MIC against Methicillin Resistant S. Aureus.
Excerpt: It has been unexpectedly discovered that substitution of compounds of Formula I and Formula II with a methoxy substituent at the R8 position increases the anti-microbial activity of the compound against Methicillin resistant Staphylococcus Aureus bacteria while at the same time decreasing the cellular toxicity of the compound. The simultaneous increase in compound activity and decrease in compound toxicity provides a greater therapeutic range for compounds of Formula I and Formula II in which R8 is methoxy; i.e. the range of doses of such compounds that will produce beneficial effects without harmful side effects is increased. […] Therapeutic range is determined using a standard assay of cytotoxicity such as the Alamar blue assay provided in Example 10.
as §1, §2, §3

Turning to `O=c1[nH]sc2c1c(=O)c1cc(F)c(N3CCN(CCN4CCOCC4)CC3)cc1n2C1CC1` [Compound 33, 9-cyclopropyl-6-fluoro-7-(4-(2-morpho-linoethyl)piperazin-1-yl)isothia-zolo[5,4-b]quinoline-3,4(2H,9H)-dione], the MIC in the test on S. aureus ATCC 29213 and in the test with E. coli ATCC 25922 was no more than 1 µg/mL each time.
Consider `CCn1c2cc(N3CCC(N(C)C)C3)c(F)cc2c(=O)c2c(=O)[nH]sc21` (stereo not drawn) [Compound 34, 7-(3-(dimethyl-amino)pyrrolidin-1-yl)-9-ethyl-6-fluoroisothia-zolo[5,4-b]quinoline-3,4(2H,9H)-dione], for which the MIC in the test on S. aureus ATCC 29213 and in the test on E. coli ATCC 25922 was no more than 1 µg/mL throughout.
As to `CCn1c2cc(NCc3ccncc3)c(F)cc2c(=O)c2c(=O)[nH]sc21` [Compound 35, 9-ethyl-6-fluoro-7-(pyridin-4-ylmethylamino) isothiazolo[5,4-b]quinoline-3,4(2H,9H)-dione], the MIC with S. aureus ATCC 29213 and with E. coli ATCC 25922 was no more than 1 µg/mL in each case.
With `CCn1c2cc(N3CCN(CCN(C)C)CC3)c(F)cc2c(=O)c2c(=O)[nH]sc21` [Compound 36, 7-(4-(2-(dimethyl-amino)ethyl)piperazin-1-yl)-9-ethyl-6-fluoroisothia-zolo[5,4-b]quinoline-3,4(2H,9H)-dione], the MIC in the test on S. aureus ATCC 29213 and with E. coli ATCC 25922 was no more than 1 µg/mL in each case.
Regarding `CCn1c2cc(N3CCSCC3)c(F)cc2c(=O)c2c(=O)[nH]sc21` [Compound 37, 9-ethyl-6-fluoro-7-thiomorpho-linoiso-thiazolo[5,4-b]quinoline-3,4(2H,9H)-dione], the MIC in the test on S. aureus ATCC 29213 and in the test on E. coli ATCC 25922 was no more than 1 µg/mL throughout.
Turning to `O=c1[nH]sc2c1c(=O)c1cc(F)c(N3CCC4(CC3)OCCO4)cc1n2C1CC1` [Compound 39], the MIC with S. aureus ATCC 29213 and in the test with E. coli ATCC 25922 was no more than 1 µg/mL in each case.
Turning to `O=C1CCN(c2cc3c(cc2F)c(=O)c2c(=O)[nH]sc2n3C2CC2)CC1` [Compound 40, 9-cyclopropyl-6-fluoro-7-(4-oxo-piperidin-1-yl)isothia-zolo[5,4-b]quinoline-3,4(2H,9H)-dione], the MIC in the test on S. aureus ATCC 29213 and in the test on E. coli ATCC 25922 was no more than 1 µg/mL in each case.
Turning to `O=c1[nH]sc2c1c(=O)c1cc(F)c(N3CCC(O)CC3)cc1n2C1CC1` [Compound 41, 9-cyclopropyl-6-fluoro-7-(4-hydroxy-piperidin-1-yl)isothia-zolo[5,4-b]quinoline-3,4(2H,9H)-dione], the minimal inhibitory concentration (MIC) in the test on S. aureus ATCC 29213 and with E. coli ATCC 25922 was no more than 1 µg/mL each time.
As to `CC(=O)N1CCN(c2cc3c(cc2F)c(=O)c2c(=O)[nH]sc2n3C2CC2)CC1` [Compound 44, 7-(4-acetyl-piperazin-1-yl)-9-cyclo-propyl-6-fluoroiso-thiazolo[5,4-b]quinoline-3,4(2H,9H)-dione], the MIC in the test with S. aureus ATCC 29213 and with E. coli ATCC 25922 was no more than 1 µg/mL throughout.
Turning to `CCn1c2s[nH]c(=O)c2c(=O)c2cc(F)c(N3CC[C@@H](C(C)(C)N)C3)c(OC)c21` [Compound 59, (R)-7-(3-(2-aminopropan-2-yl)pyrrolidin-1-yl)-9-ethyl-6-fluoro-8-methoxyiso-thiazolo[5,4-b]quinoline-3,4(2H,9H)-dione], the MIC in the test with MRSA strain ATCC 700699 and in the test on S. aureus ATCC 29213 was no more than 1 µg/mL each time.
With `COc1c(N2CCC(CN)C2)c(F)cc2c(=O)c3c(=O)[nH]sc3n(C3CC3)c12` (stereo not drawn) [Compound 66, 7-(3-(aminomethyl)-pyrrolidin-1-yl)-9-cyclopropyl-6-fluoro-8-methoxyiso-thiazolo[5,4-b]quinoline-3,4(2H,9H)-dione], the MIC in the test with MRSA strain ATCC 700699 and in the test with S. aureus ATCC 29213 was no more than 1 µg/mL each time.
`COc1c(N2C[C@H]3CCCN[C@H]3C2)ccc2c(=O)c3c(=O)[nH]sc3n(C3CC3)c12` [Compound 78, 9-cyclopropyl-8-methoxy-7-((4aR,7aR)octahydro-pyrrolo[3,4-b]pyridin-6-yl)isothia-zolo[5,4-b]quinoline-3,4(2H,9H)-dione]: the MIC in the test on S. aureus ATCC 29213 and in the test with E. coli ATCC 25922 was no more than 1 µg/mL in each case.
Take `CNC(C)(C)[C@@H]1CCN(c2ccc3c(=O)c4c(=O)[nH]sc4n(C4CC4)c3c2OC)C1` [Compound 79, (R)-9-cyclo-propyl-8-methoxy-7-(3-(2-(methyl-amino)propan-2-yl)pyrrolidin-1-yl)isothia-zolo[5,4-b]quinoline-3,4(2H,9H)-dione]: the MIC in the test with S. aureus ATCC 29213 and with E. coli ATCC 25922 was no more than 1 µg/mL each time.
As to `COc1c(N2CC[C@@H](C(C)N(C)C)C2)c(F)cc2c(=O)c3c(=O)[nH]sc3n(C3CC3)c12` (stereo partly drawn) [Compound 81, (R)-9-cyclo-propyl-7-(3-(1-(di-methylamino)ethyl)pyrrolidin-1-yl)-6-fluoro-8-methoxyiso-thiazolo[5,4-b]quinoline-3,4(2H,9H)-dione], the MIC in the test on S. aureus ATCC 29213 and in the test on E. coli ATCC 25922 was no more than 1 µg/mL in each case.
On to `COc1c(N2CC[C@@H](C(C)(C)N(C)C)C2)c(F)cc2c(=O)c3c(=O)[nH]sc3n(C3CC3)c12` [Compound 82, (R)-9-cyclo-propyl-7-(3-(2-(dimethyl-amino)propan-2-yl)pyrrolidin-1-yl)-6-fluoro-8-methoxyiso-thiazolo[5,4-b]quinoline-3,4(2H,9H)-dione], for which the MIC in the test with S. aureus ATCC 29213 and in the test on E. coli ATCC 25922 was no more than 1 µg/mL each time.
As for `COc1cc2c(=O)c3c(=O)[nH]sc3n(C3CC3)c2c(F)c1N1CC[C@@H](C(C)(C)N)C1` [Compound 83, (R)-7-(3-(2-aminopropan-2-yl)pyrrolidin-1-yl)-9-cyclopropyl-8-fluoro-6-methoxyiso-thiazolo[5,4-b]quinoline-3,4(2H,9H)-dione], the MIC in the test with S. aureus ATCC 29213 and with E. coli ATCC 25922 was no more than 1 µg/mL each time.
On to `COc1cc2c(=O)c3c(=O)[nH]sc3n(C3CC3)c2c(F)c1N1CC[C@@H](CN)C1` [Compound 85, (S)-7-(3-(aminomethyl)-pyrrolidin-1-yl)-9-cyclo-propyl-8-fluoro-6-methoxyiso-thiazolo[5,4-b]quinoline-3,4(2H,9H)-dione], for which the MIC in the test with S. aureus ATCC 29213 and in the test with E. coli ATCC 25922 was no more than 1 µg/mL each time.
As to `COc1c(N2CC[C@@H](CN(C)C)C2)c(F)cc2c(=O)c3c(=O)[nH]sc3n(C3CC3)c12` [Compound 86, (S)-9-cyclo-propyl-7-(3-((dimethyl-amino)methyl)pyrrolidin-1-yl)-6-fluoro-8-methoxyiso-thiazolo[5,4-b]quinoline-3,4(2H,9H)-dione], the MIC in the test with S. aureus ATCC 29213 and in the test with E. coli ATCC 25922 was no more than 1 µg/mL each time.
Regarding `COc1c(N2CC[C@H](CN)C2)ccc2c(=O)c3c(=O)[nH]sc3n(C3CC3)c12` [Compound 90, (R)-7-(3-(aminomethyl)-pyrrolidin-1-yl)-9-cyclopropyl-8-methoxyiso-thiazolo[5,4-b]quinoline-3,4(2H,9H)-dione], the MIC with S. aureus ATCC 29213 and in the test with E. coli ATCC 25922 was no more than 1 µg/mL throughout.
Turning to `CC[C@@H](NC)[C@@H]1CCN(c2c(F)cc3c(=O)c4c(=O)[nH]sc4n(C4CC4)c3c2OC)C1` [Compound 92, 9-cyclopropyl-6-fluoro-8-methoxy-7-((R)-3-((R)-1-(methylamino)-propyl)pyrrolidin-1-yl)isothia-zolo[5,4-b]quinoline-3,4(2H,9H)-dione], the MIC with MRSA strain ATCC 700699 and in the test with S. aureus ATCC 29213 was no more than 1 µg/mL throughout.
`COc1c(N2CC[C@@H](CNC3CC3)C2)ccc2c(=O)c3c(=O)[nH]sc3n(C3CC3)c12` [Compound 101, (S)-9-cyclo-propyl-7-(3-((cyclopropyl-amino)methyl)-pyrrolidin-1-yl)-8-methoxyiso-thiazolo[5,4-b]quinoline-3,4(2H,9H)-dione]: the MIC in the test on S. aureus ATCC 29213 and with E. coli ATCC 25922 was no more than 1 µg/mL throughout.
As to `COc1c(N2CC(N)C2)c(F)cc2c(=O)c3c(=O)[nH]sc3n(C3CC3)c12` [Compound 105, 7-(3-amino-azetidin-1-yl)-9-cyclopropyl-6-fluoro-8-methoxyiso-thiazolo[5,4-b]quinoline-3,4(2H,9H)-dione], the MIC with S. aureus ATCC 29213 and in the test with E. coli ATCC 25922 was no more than 1 µg/mL in each case.
Take `CCNC1CN(c2c(F)cc3c(=O)c4c(=O)[nH]sc4n(C4CC4)c3c2OC)C1` [Compound 106, 9-cyclopropyl-7-(3-(ethylamino)-azetidin-1-yl)-6-fluoro-8-methoxyiso-thiazolo[5,4-b]quinoline-3,4(2H,9H)-dione]: the MIC in the test with S. aureus ATCC 29213 and in the test on E. coli ATCC 25922 was no more than 1 µg/mL in each case.
Regarding `CN[C@H](C)[C@@H]1CCN(c2c(F)cc3c(=O)c4c(=O)[nH]sc4n(C4CC4)c3c2OC)C1` [Compound 107, 9-cyclopropyl-6-fluoro-8-methoxy-7-((R)-3-((R)-1-(methyl-amino)ethyl)pyrrolidin-1-yl)isothia-zolo[5,4-b]quinoline-3,4(2H,9H)-dione], the MIC with MRSA strain ATCC 700699 and in the test on S. aureus ATCC 29213 was no more than 1 µg/mL in each case.
